According to ChEMBL document CHEMBL5543126, “Combinatorial Ubiquitination REal-time PROteolysis (CURE-PROs): A Modular Platform for Generating Reversible, Self-Assembling Bifunctional Targeted Degraders” (J Med Chem, 2024):
Blank lines part the entries; values can stand above or below the molecule they belong to. The source made the active and inactive calls. The rule behind the calls is not given here.

Assays:
Format in all cases: cell-based
[1] = molecular target: Protein cereblon/Bromodomain-containing protein 4 (Homo sapiens) (UniProt O60885+Q96SW2); test: PROTAC activity at BRD4/CRBN in human HeLa cells assessed as induction of BRD4 degradation at 10 uM incubated for 24 hrs in presence of CRBN based ligand N-((2-(2,6-dioxopiperidin-3-yl)-1,3-dioxoisoindolin-4-yl)methyl)-2,3-dihydroxybenzamide by Western blot analysis based Combinatorial Ubiquitination Real-time PROteolysis analysis
[2] = molecular target: T1, von Hippel-Lindau disease tumor suppressor/Bromodomain-containing protein 4 (Homo sapiens, UniProt O60885+P40337); test: PROTAC activity at VHL/BRD4 in HEK293 cells assessed as induction of BRD4 degradation by measuring Tmax at 0.3 uM measured every 15 mins for 24 hrs in presence of VHL based ligand (2S,4R)-1-((S)-2-(2,3-dihydroxybenzamido)-3,3-dimethylbutanoyl)-4-hydroxy-N-(4-(4-methylthiazol-5-yl)benzyl)pyrrolidine-2-carboxamide by HiBiT based Combinatorial Ubiquitination Real-time PROteolysis analysis
[3] = molecular target: T1, von Hippel-Lindau disease tumor suppressor/Bromodomain-containing protein 4; test: (§1) PROTAC activity at VHL/BRD4 in human MCF7 cells assessed as induction of BRD4 degradation at 10 uM incubated for 24 hrs in presence of VHL ligand based (2S,4R)-1-((S)-2-(2,3-dihydroxybenzamido)-3,3-dimethylbutanoyl)-4-hydroxy-N-(4-(4-methylthiazol-5-yl)benzyl)pyrrolidine-2-carboxamide by Western blot based Combinatorial Ubiquitination Real-time PROteolysis analysis
[4] = molecular target: T1, von Hippel-Lindau disease tumor suppressor/Bromodomain-containing protein 4; test: as §1, with “BRD4/VHL” for “VHL/BRD4”, “degradation by measuring residual activity” for “degradation”, “30 nM” for “10 uM”, “VHL based” for “VHL”, “ligand” for “ligand based”
[5] = molecular target: T1, von Hippel-Lindau disease tumor suppressor/Bromodomain-containing protein 4; test: as §1, with “BRD4/VHL” for “VHL/BRD4”, “degradation by measuring residual activity” for “degradation”, “1” for “10”, “VHL based” for “VHL”, “ligand” for “ligand based”
[6] = molecular target: T1, von Hippel-Lindau disease tumor suppressor/Bromodomain-containing protein 4; test: (§2) PROTAC activity at BRD4/VHL in human MCF7 cells assessed as induction of BRD4 degradation by measuring residual activity at 100 nM incubated for 24 hrs in presence of 100 nM VHL based ligand (2S,4R)-1-((S)-2-(2,3-dihydroxybenzamido)-3,3-dimethylbutanoyl)-4-hydroxy-N-(4-(4-methylthiazol-5-yl)benzyl)pyrrolidine-2-carboxamide by Western blot based Combinatorial Ubiquitination Real-time PROteolysis analysis
[7] = molecular target: T1, von Hippel-Lindau disease tumor suppressor/Bromodomain-containing protein 4; test: as §2, with “at 1 uM” for “at 100 nM”
[8] = molecular target: T1, von Hippel-Lindau disease tumor suppressor/Bromodomain-containing protein 4; test: as §2, with “at 10 uM” for “at 100 nM”
[9] = molecular target: T1, von Hippel-Lindau disease tumor suppressor/Bromodomain-containing protein 4; test: as §2, with “at 300” for “at 100”, “of 1 uM” for “of 100 nM”
[10] = molecular target: T1, von Hippel-Lindau disease tumor suppressor/Bromodomain-containing protein 4; test: as §2, with “of 3 uM” for “of 100 nM”
[11] = molecular target: T1, von Hippel-Lindau disease tumor suppressor/Bromodomain-containing protein 4; test: as §2, with “3 uM” for “100 nM”
[12] = molecular target: T1, von Hippel-Lindau disease tumor suppressor/Bromodomain-containing protein 4; test: as §2, with “at 10 uM” for “at 100 nM”, “of 3 uM” for “of 100 nM”
[13] = molecular target: T1, von Hippel-Lindau disease tumor suppressor/Bromodomain-containing protein 4; test: as §2, with “at 30” for “at 100”, “of 10 uM” for “of 100 nM”
[14] = molecular target: T1, von Hippel-Lindau disease tumor suppressor/Bromodomain-containing protein 4; test: (§3) PROTAC activity at VHL/BRD4 in HEK293 cells assessed as induction of BRD4 degradation by measuring maximal level of degradation at 3 uM measured every 15 mins for 24 hrs in presence of BRD4 based ligand ((4S)-6-(4-chlorophenyl)-4-(2-(ethylamino)-2-oxoethyl)-1-methyl4Hbenzo[f][1,2,4]triazolo [4,3-a][1,4]diazepin-8-yl)boronic acid by HiBiT based Combinatorial Ubiquitination Real-time PROteolysis analysis
[15] = molecular target: T1, von Hippel-Lindau disease tumor suppressor/Bromodomain-containing protein 4; test: as §3, with “measuring Tmax” for “measuring maximal level of degradation”, “at 0.3” for “at 3”
[16] = molecular target: T1, von Hippel-Lindau disease tumor suppressor/Bromodomain-containing protein 4; test: as §3, with “measuring Tmax” for “measuring maximal level of degradation”, “at 1” for “at 3”
[17] = molecular target: T1, von Hippel-Lindau disease tumor suppressor/Bromodomain-containing protein 4; test: PROTAC activity at VHL/BRD4 in human MCF7 cells assessed as induction of BRD4 degradation at 10 uM incubated for 24 hrs in presence of BRD4 ligand based ((4S)-6-(4-chlorophenyl)-4-(2-(ethylamino)-2-oxoethyl)-1-methyl4Hbenzo[f][1,2,4]triazolo [4,3-a][1,4]diazepin-8-yl)boronic acid by Western blot based Combinatorial Ubiquitination Real-time PROteolysis analysis
[18] = molecular target: T1, von Hippel-Lindau disease tumor suppressor/Bromodomain-containing protein 4; test: (§4) PROTAC activity at BRD4/VHL in human MCF7 cells assessed as induction of BRD4 degradation by measuring residual activity at 3 uM incubated for 24 hrs in presence of BRD4 based ligand ((4S)-6-(4-chlorophenyl)-4-(2-(ethylamino)-2-oxoethyl)-1-methyl4Hbenzo[f][1,2,4]triazolo [4,3-a][1,4]diazepin-8-yl)boronic acid by Western blot based Combinatorial Ubiquitination Real-time PROteolysis analysis
[19] = molecular target: T1, von Hippel-Lindau disease tumor suppressor/Bromodomain-containing protein 4; test: as §4, with “presence of 100 nM BRD4 based” for “presence of BRD4 based”
[20] = molecular target: T1, von Hippel-Lindau disease tumor suppressor/Bromodomain-containing protein 4; test: as §4, with “activity at 10 uM incubated” for “activity at 3 uM incubated”, “presence of 100 nM BRD4 based” for “presence of BRD4 based”
[21] = molecular target: T1, von Hippel-Lindau disease tumor suppressor/Bromodomain-containing protein 4; test: as §4, with “activity at 10 uM incubated” for “activity at 3 uM incubated”, “presence of 300 nM BRD4 based” for “presence of BRD4 based”
[22] = molecular target: T1, von Hippel-Lindau disease tumor suppressor/Bromodomain-containing protein 4; test: as §4, with “activity at 30 nM incubated for” for “activity at 3 uM incubated for”, “presence of 1 uM BRD4 based” for “presence of BRD4 based”
[23] = molecular target: T1, von Hippel-Lindau disease tumor suppressor/Bromodomain-containing protein 4; test: as §4, with “activity at 1 uM incubated” for “activity at 3 uM incubated”, “presence of 10 uM BRD4 based” for “presence of BRD4 based”
[24] = molecular target: T1, von Hippel-Lindau disease tumor suppressor/Bromodomain-containing protein 4; test: as §4, with “presence of 10 uM BRD4 based” for “presence of BRD4 based”

T1 sequence (P40337 whole entry, looked up, other chains not shown): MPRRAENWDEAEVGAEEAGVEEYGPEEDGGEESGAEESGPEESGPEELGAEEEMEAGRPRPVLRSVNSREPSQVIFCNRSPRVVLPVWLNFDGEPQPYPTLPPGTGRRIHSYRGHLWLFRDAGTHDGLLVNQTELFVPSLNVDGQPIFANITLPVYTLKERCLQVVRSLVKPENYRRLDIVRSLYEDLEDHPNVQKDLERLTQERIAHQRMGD
Sequence of Protein cereblon/Bromodomain-containing protein 4 (Homo sapiens) (Q96SW2 whole entry, looked up, other chains not shown): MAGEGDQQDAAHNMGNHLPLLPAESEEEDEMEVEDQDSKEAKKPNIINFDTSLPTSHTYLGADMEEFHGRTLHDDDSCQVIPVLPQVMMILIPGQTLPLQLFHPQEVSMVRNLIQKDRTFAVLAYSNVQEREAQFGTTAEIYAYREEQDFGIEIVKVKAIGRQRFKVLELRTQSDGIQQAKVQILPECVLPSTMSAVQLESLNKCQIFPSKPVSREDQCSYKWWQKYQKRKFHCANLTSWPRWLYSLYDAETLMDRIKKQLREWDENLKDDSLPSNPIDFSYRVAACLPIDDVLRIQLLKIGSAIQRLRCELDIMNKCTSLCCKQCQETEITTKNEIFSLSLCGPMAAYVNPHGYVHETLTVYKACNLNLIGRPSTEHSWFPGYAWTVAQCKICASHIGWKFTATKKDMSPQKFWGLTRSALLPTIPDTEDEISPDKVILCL

Compound: CCNC(=O)C[C@@H]1N=C(c2ccc(Cl)cc2)c2cc(B(O)O)ccc2-n2c(C)nnc21
- Activity [1]: inactive
- Tmax [2]: 7.75 h
- Activity [3]: Active
- Activity [4]: 91%
- Activity [5]: 64%
- Activity [6]: 97%
- Activity [7]: 56%
- Activity [8]: 55%
- Activity [9]: 38%
- Activity [10]: 74%
- Activity [11]: 16%
- Activity [12]: 7%
- Activity [13]: 76%

- Emax [14]: 93%
- Tmax [15]: 7.75 h
- Tmax [16]: 19.5 h
- Activity [17]: Active
- Activity [18]: 73%
- Activity [19]: 51%
- Activity [20]: 55%
- Activity [21]: 48%
- Activity [22]: 96%
- Activity [23]: 20%
- Activity [24]: 16%
Compound: Cc1ncsc1-c1ccc(CNC(=O)[C@@H]2C[C@@H](O)CN2C(=O)[C@@H](NC(=O)c2cccc(O)c2O)C(C)(C)C)cc1
